Measurements as given in patent US11154563B2, “Immunoproteasome inhibitors” (Principia Biopharma Inc., priority 2017, dated 2021).

Columns and labels:
[1] = target: immunoproteasome LMP7/B5i subunit (Homo sapiens, UniProt P20618+P28062); assay: Caliper-based proteasome enzymatic activity assay, LMP7; type: biochemical; conditions: human recombinant immunoproteasome 0.3 nM, FAM-peptide substrate 1 μM, 3 h at rt
Procedure: (§1) A Caliper-based proteasome assay (Caliper Life Sciences, Hopkinton, Mass.) was used to measure inhibition of the immunoproteasome LMP7/B5i subunit, the immunoproteasome LPM2/β1i subunit, and the constitutive proteasome β5c unit for a compound of Formula (I). For LMP7 and β5c, serial dilutions of test compounds were incubated with either human recombinant immunoprotcasome or constitutive proteasome (0.3 nM enzyme) and a carboxyfluorescein (FAM)-labeled peptide substrate FAM-TYETFKSIMKKSPF-NH2 (1 μM) at it for 3 h. The reaction was then terminated with a buffer containing the known proteasome inhibitor carfilzomib at a concentration of 5 uM. For LMP2, serial dilutions of test compounds were incubated with human recombinant immunoproteasome proteasome (0.3 nM enzyme) and a carboxyfluorescein (FAM)-labeled peptide substrate FAM-[…]-NH2 (1 μM) at rt for 2 h. The reaction was then terminated with a buffer containing the known proteasome inhibitor ixazomib at a concentration of 6.7 uM. The reaction buffer was 20 mM Hepes pH 7.4, 0.01% bovine serum albumin, 0.015% SDS, 0.5 mM EDTA, 1%0/DMSO. The peptide cleavage reaction product was quantified on a Caliper LabChip 3000. Percent inhibition was calculated for each compound dilution and the concentration that produced 50% inhibition was calculated. This value is presented as the IC50.

[2] = target: constitutive proteasome β5c unit (Homo sapiens, UniProt P20618+P28074); assay: Caliper-based proteasome enzymatic activity assay, β5c; type: biochemical; conditions: human recombinant constitutive proteasome 0.3 nM, FAM-peptide substrate 1 μM, 3 h at rt; read-out: β5c subunit IC50
Procedure: as §1

Row | SMILES | IC50 [1] | IC50 [2]
1 | CC(C)(C=C(C#N)C(=O)N1CCCC[C@@H]1COC(=O)N[C@@H](Cc1ccc(F)cc1F)B(O)O)N1CCC(F)(F)C1 [Example 113, ((R)-1-(((((R)-1-(2-cyano-4-(3,3-difluoropyrrolidin-1-yl)-4-methylpent-2-enoyl)piperidin-2-yl)methoxy)carbonyl)amino)-2-(2,4-difluorophenyl)ethyl)boronic acid] | > 5 µM | > 5 µM
2 | CC(C)(C=C(C#N)C(=O)N1CCCC[C@@H]1COC(=O)N[C@@H](Cc1coc2ccccc12)B(O)O)N1CCOCC1 [Example 46, ((R)-2-(benzofuran-3-yl)-1-(((((R)-1-(2-cyano-4-methyl-4-morpholinopent-2-enoyl)piperidin-2-yl)methoxy)carbonyl)amino)ethyl)boronic acid] | 0.001 µM | 0.187 µM
3 | CC(C)(C=C(C#N)C(=O)N1CCCC[C@]1(C)COC(=O)N[C@@H](Cc1ccccc1)B(O)O)N1CCC(F)(F)C1 [Example 129, ((R)-1-(((((R)-1-(2-cyano-4-(3,3-difluoropyrrolidin-1-yl)-4-methylpent-2-enoyl)-2-methylpiperidin-2-yl)methoxy)carbonyl)amino)-2-phenylethyl)boronic acid] | 0.002 µM | 1.94 µM
4 | CC(C)(C=C(C#N)C(=O)N1CCCCC[C@H]1COC(=O)N[C@@H](Cc1coc2ccccc12)B(O)O)N1CCC(F)(F)C1 [Example 68, ((R)-2-(benzofuran-3-yl)-1-(((((S)-1-(2-cyano-4-(3,3-difluoropyrrolidin-1-yl)-4-methylpent-2-enoyl)azepan-2-yl)methoxy)carbonyl)amino)ethyl)boronic acid] | 0.0025 µM | 0.447 µM
5 | COc1ccc(C[C@H](NC(=O)OC[C@H]2CCCCN2C(=O)C(C#N)=CC(C)(C)C)B(O)O)cc1 [Example 70, ((R)-1-(((((R)-1-(2-cyano-4,4-dimethylpent-2-enoyl)piperidin-2-yl)methoxy)carbonyl)amino)-2-(4-methoxyphenyl)ethyl)boronic acid] | 0.0065 µM | 1.84 µM
6 | C=CC(=O)N1C[C@@H](F)C[C@@H]1COC(=O)N[C@@H](Cc1ccccc1)B(O)O [Example 100, ((R)-1-(((((2R,4S)-1-acryloyl-4-fluoropyrrolidin-2-yl)methoxy)carbonyl)amino)-2-phenylethyl)boronic acid] | 0.021 µM | 0.53 µM
7 | CC(C)(C=C(C#N)C(=O)N1CCCC[C@@H]1COC(=O)N[C@@H](Cc1ccccc1C(F)(F)F)B(O)O)N1CCC(F)(F)C1 [Example 110, ((R)-1-(((((R)-1-(2-cyano-4-(3,3-difluoropyrrolidin-1-yl)-4-methylpent-2-enoyl)piperidin-2-yl)methoxy)carbonyl)amino)-2-(2-(trifluoromethyl)phenyl)ethyl)boronic acid] | 0.022 µM | > 5 µM
8 | C=CC(=O)N1CCS(=O)(=O)C[C@@H]1COC(=O)N[C@@H](Cc1coc2ccccc12)B(O)O [Example 111] | 0.0042 µM | 0.09 µM
9 | CC(C)(C=C(C#N)C(=O)N1CCCC[C@@H]1COC(=O)N[C@@H](Cc1ccc(Cl)cc1)B(O)O)N1CCC(F)(F)C1 [Example 79, ((R)-2-(4-chlorophenyl)-1-(((((R)-1-(2-cyano-4-(3,3-difluoropyrrolidin-1-yl)-4-methylpent-2-enoyl)piperidin-2-yl)methoxy)carbonyl)amino)ethyl)boronic acid] | 0.002 µM | 0.578 µM
10 | CC(C)(C=C(C#N)C(=O)N1CCC[C@@H]1COC(=O)N[C@@H](Cc1coc2ccccc12)B(O)O)N1CCN(C2COC2)CC1 [Example 44, ((R)-2-(benzofuran-3-yl)-1-(((((R)-1-(2-cyano-4-methyl-4-(4-(oxetan-3-yl)piperazin-1-yl)pent-2-enoyl)pyrrolidin-2-yl)methoxy)carbonyl)amino)ethyl)boronic acid] | 0.0023 µM | 0.396 µM
11 | CC(C)(C=C(C#N)C(=O)N1C[C@@H]2C[C@@H]2[C@@H]1COC(=O)N[C@@H](Cc1ccc(F)cc1)B(O)O)N1CCC(F)(F)C1 [Example 108] | 0.0009 µM | 0.83 µM
12 | Cc1ccc(C[C@H](NC(=O)OC[C@@H]2CCCCCN2C(=O)C(C#N)=CC(C)(C)N2CCC(F)(F)C2)B(O)O)cc1 [Example 81, ((R)-1-(((((S)-1-(2-cyano-4-(3,3-difluoropyrrolidin-1-yl)-4-methylpent-2-enoyl)azepan-2-yl)methoxy)carbonyl)amino)-2-(p-tolyl)ethyl)boronic acid] | 0.0044 µM | 3.84 µM
13 | COC(=O)N1CCN(C(C)(C)C=C(C#N)C(=O)N2CCCC[C@@H]2COC(=O)N[C@@H](Cc2ccccc2)B(O)O)CC1 [Example 125, ((R)-1-(((((R)-1-(2-cyano-4-(4-(methoxycarbonyl)piperazin-1-yl)-4-methylpent-2-enoyl)piperidin-2-yl)methoxy)carbonyl)amino)-2-phenylethyl)boronic acid] | 0.0016 µM | 2.86 µM
14 | COc1ccc(C[C@H](NC(=O)OC[C@H]2CCCCN2C(=O)C(C#N)=CC(C)(C)N2CCC(F)(F)C2)B(O)O)cc1 [Example 78, ((R)-1-(((((R)-1-(2-cyano-4-(3,3-difluoropyrrolidin-1-yl)-4-methylpent-2-enoyl)piperidin-2-yl)methoxy)carbonyl)amino)-2-(4-methoxyphenyl)ethyl)boronic acid] | 0.0048 µM | 1.27 µM
15 | CC(C)(C=C(C#N)C(=O)N1C[C@@H]2C[C@@H]2[C@@H]1COC(=O)N[C@@H](Cc1coc2ccccc12)B(O)O)N1CCOCC1 [Example 51, ((R)-2-(benzofuran-3-yl)-1-(((((1S,2R,5R)-3-(2-cyano-4-methyl-4-morpholinopent-2-enoyl)-3-azabicyclo[3.1.0]hexan-2-yl)methoxy)carbonyl)amino)ethyl)boronic acid] | 0.0005 µM | 0.356 µM
16 | C=CC(=O)N1CCOC[C@@H]1COC(=O)N[C@@H](Cc1coc2ccccc12)B(O)O [Example 93, ((R)-1-(((((R)-4-acryloylmorpholin-3-yl)methoxy)carbonyl)amino)-2-(benzofuran-3-yl)ethyl)boronic acid] | 0.003 µM | 0.165 µM
17 | C=CC(=O)N1C[C@@H]2C[C@@H]2[C@@H]1COC(=O)N[C@@H](Cc1ccccc1)B(O)O [Example 99, ((R)-1-(((((1S,2R,5R)-3-acryloyl-3-azabicyclo[3.1.0]hexan-2-yl)methoxy)carbonyl)amino)-2-phenylethyl)boronic acid] | 0.068 µM | 1.99 µM
18 | CC(C)(C=C(C#N)C(=O)N1CCCCC[C@@H]1COC(=O)N[C@@H](Cc1coc2ccccc12)B(O)O)N1CCOCC1 [Example 63, ((R)-2-(benzofuran-3-yl)-1-(((((R)-1-(2-cyano-4-methyl-4-morpholinopent-2-enoyl)-azepan-2-yl)methoxy)carbonyl)amino)ethyl)boronic acid] | 0.0014 µM | 0.23 µM
19 | CC(C)(C=C(C#N)C(=O)N1CCCC[C@@H]1COC(=O)N[C@@H](Cc1ccc(F)cc1)B(O)O)N1CCN(C2COC2)CC1 [Example 127, ((R)-1-(((((R)-1-(2-cyano-4-methyl-4-(4-(oxetan-3-yl)piperazin-1-yl)pent-2-enoyl)piperidin-2-yl)methoxy)carbonyl)amino)-2-(4-fluorophenyl)ethyl)boronic acid] | 0.005 µM | 0.9 µM
20 | CC(C)(C)C=C(C#N)C(=O)N1CCOC[C@@H]1COC(=O)N[C@@H](Cc1coc2ccccc12)B(O)O [Example 43, ((R)-2-(benzofuran-3-yl)-1-(((((R)-4-(2-cyano-4,4-dimethylpent-2-enoyl)morpholin-3-yl)methoxy)carbonyl)amino)ethyl)boronic acid] | 0.002 µM | 0.034 µM
21 | C=CC(=O)N1C[C@@H]2C[C@@H]2[C@@H]1COC(=O)N[C@@H](Cc1ccc(C)cc1)B(O)O [Example 95, ((R)-1-(((((1S,2R,5R)-3-acryloyl-3-azabicyclo[3.1.0]hexan-2-yl)methoxy)carbonyl)amino)-2-(p-tolyl)ethyl)boronic acid] | 0.037 µM | 3.39 µM
22 | CC(C)(C=C(C#N)C(=O)N1CCCC[C@@H]1COC(=O)N[C@@H](Cc1coc2ccccc12)B(O)O)N1CCC(F)(F)CC1 [Example 66, ((R)-2-(benzofuran-3-yl)-1-(((((R)-1-(2-cyano-4-(4,4-difluoropiperidin-1-yl)-4-methylpent-2-enoyl)piperidin-2-yl)methoxy)carbonyl)amino)ethyl)boronic acid] | 0.0021 µM | 0.217 µM
23 | CN(CC(F)F)C(C)(C)C=C(C#N)C(=O)N1CCCC[C@@H]1COC(=O)N[C@@H](Cc1ccccc1)B(O)O [Example 80, ((R)-1-(((((R)-1-(2-cyano-4-((2,2-difluoroethyl)(methyl)amino)-4-methylpent-2-enoyl)piperidin-2-yl)methoxy)carbonyl)amino)-2-phenylethyl)boronic acid] | 0.002 µM | 1.51 µM
24 | C=CC(=O)N1C[C@H](F)C[C@@H]1COC(=O)N[C@@H](Cc1ccccc1)B(O)O [Example 89, ((R)-1-(((((2R,4R)-1-acryloyl-4-fluoropyrrolidin-2-yl)methoxy)carbonyl)amino)-2-phenylethyl)boronic acid] | 0.073 µM | 1.85 µM
